One data set concerns stimulated PBMC. The data set can be described thus: IC50 on stimulated PBMC (actively dividing cells). Particulars: for Therapeutic Index = IC50 resting PBMC/IC50 cancer cell: PBMC Stim, healthy lymphocyte, Table IV; for Therapeutic Index = IC50 stimulated PBMC/IC50 cancer cell, AVERAGE: average across the 7 cancer cell lines, Table VII.
For the next data set, the system named is Caspase 3/7. Nature of the data set: Caspase activity assay in MiaPaca2 cells. The format is cell-based. As to conditions: 8, 24, 48 hours, FIG. 11.
For the next data set, the system named is MDA-MB-231. Nature of the data set: In vitro proliferation / cytotoxic assay on breast cancer cells (cell titer glo). In kind it is cell-based. On the procedure: (§1) For the cytotoxic assay: cells seeded in 96 well flat bottom culture plates in media containing charcoal stripped serum. After 24 hours test compounds were added to the cells. DMSO was used as the vehicle negative control and RU486 as the positive control. After 72 hours incubation cell were harvested, lysed and viability determined using the cell titer glow assay for viability.
On the technique in general: Cellular ATP, detected with luciferase, serves as a proxy for viable cell number.

In the next data set the test system is HT29. Nature of the data set: In vitro proliferation, larger cancer cell line panel. As to conditions: Homo sapiens, HT-29, read-out: in vitro proliferation IC50.
The next data set concerns LNCaP. The data set can be described thus: ATP-dependent proliferation/viability assay (Cell Titer Glo), 3 days. Particulars: Homo sapiens, LNCaP, 72 h, LNCaP (AR+); 10 nM DHT; 3 days; Examples 1-2 Experiment 1, sigmoidal dose response fit. As for the experimental part:
The experiment was performed to test and to define the antitumor activity in vitro of cortexolone 17α-benzoate on LNCaP (AR+) and PC3 (AR^−), representative of Prostatic cancer cell lines with Androgen Receptor (AR) positive or negative expression, respectively. The experimental method consisted of: • 1. […] After 24 hours, 10 nM DHT (dihydrotestosterone) with or without anti-androgen compounds, or DMSO vehicle (negative control) was added to the cultures. • 3.
The experiment was performed to test and to define antitumor activity in vitro of cortexolone 17α-valerate-21-propionate (CB-03-10) on LNCaP (AR+) and PC3 (AR^−), representative of Prostatic cancer cell lines with AR positive or negative expression, respectively. The experimental method consisted of: • 1. […] After 24 hours, 10 nM DHT (dihydrotestosterone) with or without anti-androgen compounds, or DMSO vehicle (negative control) was added to the cultures. • 3.

For a further data set, the system named is Panc1. The data set is described as above. As to conditions: IC50 stimulated PBMC / IC50 Panc1; Experiment 1; 0 = higher toxicity in PBMC than in the cancer cell lines.
In data set [1] the test system is MiaPaca-2 pancreatic tumor xenograft. The data set can be described thus: Human pancreatic tumor xenograft in nude mice, subcutaneous treatment. The format is in vivo. Particulars: for average tumor size increase: Cyproterone Acetate treatment groups (7.4 mg/kg and 37 mg/kg) SC daily 28 days. On the procedure: The test was carried out comparing the anti-tumor activity of cortexolone 17α-benzoate at two different dosages (8.0 mg/kg, corresponding approximately at 230 μM, and 40 mg/kg, corresponding approximately at 1150 μM), versus the vehicle (i.e. 0.4% (v/v) tween 80 and 0.5% (w/v) carboxymethylcellulose in normal saline) and versus the comparator Cyproterone Acetate at two different dosages (7.4 mg/kg and 37 mg/kg).
1×10^6 MiaPaca-2 cells suspended in matrigel were subcutaneously injected into 6 week old athymic nude mice.
The treatment with the tested compounds, with the vehicle and with the comparative compound, was initiated after the tumor volume has reached 50 mm3 after transplantation. All compounds were injected 100 μL/mouse subcutaneously of low dose solution (approximately 230 μM) or 100 μL/mouse of high dose solution (approximately 1150 μM) of cortexolone 17α-benzoate, vehicle and cyproterone acetate, respectively. Compounds and controls were administered subcutaneously daily for 28 days.
Tumors were measured every 4 days with a digital caliper.
The results are plotted in FIG. 1 as average change in tumor volume relative to the start of treatment. Tumor volume was calculated according to the formula 0.5236(r1)^2(r2) where r1<r2.
The test was carried out comparing the anti-tumor activity of cortexolone 17α-valerate-21-propionate (CB-03-10) at two different dosages (approximately 8.6 mg/kg and 43 mg/kg) versus the vehicle (i.e. 0.4% (v/v) tween 80 and 0.5% (w/v) carboxymethylcellulose in normal saline) and versus the comparator Cyproterone Acetate at two different dosages (7.4 mg/kg and 37 mg/kg).
The treatment with the tested compound, with the vehicle and with the comparative compound was initiated after the tumor has reached a volume of 50 mm3 after implantation, injecting subcutaneously 100 μL/mouse of low dose solution (approximately 230 μM) or 100 μL/mouse of high dose solution (approximately 1150 μM) of cortexolone 17α-valerate-21-propionate (CB-03-10), vehicle and cyproterone acetate, respectively. Compounds and controls were administered subcutaneously daily for 28 days.
The results are plotted in FIG. 2 as average change in tumor volume relative to the start of treatment. Tumor volume was calculated according to the formula 0.5236(r1)^2(r2) where r1<r2.
CPA a well-known anti-androgen was used as control. Briefly 1×10^6 MiaPaca2 cells suspended in matrigel were subcutaneously (SC) injected into 6 week old male athymic nude mice. Tumors were measured every 4 days with a digital caliper. Tumor volume was calculated according to the formula: 0.5236(r1)2(r2) where r1<r2. Treatment with CB-03-10 and controls compounds was initiated after the tumor had reached 50 mm3. Compounds diluted in DMSO/2-hydroxypropyl b-cyclodextrin (vehicle) were injected subcutaneously (SC) daily (100 μL/mouse) at the concentration of 40 mg/Kg daily for 28 consecutive days.
On the technique in general: Xenograft models place foreign cells or tissue in a host animal.

The subject of data set [2] is LNCaP prostate cancer xenograft. Nature of the data set: Human prostate cancer xenograft in nude mice, oral treatment. The format is in vivo. As for the experimental part: 3×10^6 LNCaP cells suspended in matrigel were subcutaneously injected (on the right flank) into 6 week old male athymic nude mice. Tumors were measured as described above. Treatment with CB-03-10 and controls compounds was initiated after the tumor had reached 50 mm3. […] Oral dosing was daily (100 mg/Kg in 200 μL/mouse) for 28 consecutive days. Results were plotted as average change in tumor volume relative to the start of treatment.

A further data set concerns MCF7. The data set can be described thus: In vitro proliferation / cytotoxic assay on breast cancer cells (cell titer glo). Particulars: MCF7 (ER+PR+GR+/-); 72 hours; Table VI prints no unit (same values in Table III in μM). As for the experimental part:
as §1

The structures appear in SMILES notation. Where only a bound is given, the exact number is not on record here.

Method for Caspase 3/7: To better analyze the phenomenon the enzymatic activity of Caspase 8 (initiator caspase for Extrinsic Pathway) and Caspase 9 (initiator caspase for Intrinsic Pathway) and of Caspases 3 and 7 (effector caspases) were measured.
After 8, 24, & 48 hours incubation with test compounds, cells were lysed in buffer containing the caspase 3/7 or 8 or 9 substrate and a stable luciferase in proprietary buffers. The lysates were transferred to white opaque plates before measuring luminescence in a Tecan S afire instrument. Parallel plates treated identically, were used to determine viable cells. All caspase activities were corrected for the number of viable cells.
Method for stimulated PBMC: The IC^50 in PBMC were tested in 2 different activation status:
stimulated—actively dividing cells
IC50 of the compounds was determined on fresh cells isolated from human blood (PBMC). The compounds toxicity was determined as follow: Therapeutic Index=Safety/Potency=IC50 stimulated PBMC_/IC50 cancer cell

With `CCCC(=O)OC1(C(=O)CO)CCC2C3CCC4=CC(=O)CC[C@]4(C)C3=CC[C@@]21C` (single isomer, unassigned) [CB-03-04], in the data set on stimulated PBMC, the “Therapeutic Index = IC50 resting PBMC/IC50 cancer cell” value was 1 and the “Therapeutic Index = IC50 stimulated PBMC/IC50 cancer cell, AVERAGE” value was 4.

As for `CCC(=O)O[C@]1(C(=O)CO)CC[C@H]2[C@@H]3CCC4=CC(=O)CC[C@]4(C)[C@H]3CC[C@@]21C` [CB-03-01], in the data set with stimulated PBMC, the “Therapeutic Index = IC50 resting PBMC/IC50 cancer cell” value is on record as 1 and the “Therapeutic Index = IC50 stimulated PBMC/IC50 cancer cell, AVERAGE” value came out at 0.

Consider `CCCC(=O)OCC(=O)[C@@]1(OC(=O)CCC)CCC2C3CCC4=CC(=O)CC[C@]4(C)C3CC[C@@]21C` (some centres unmarked) [CB-03-03], for which, in the data set on stimulated PBMC, the “Therapeutic Index = IC50 resting PBMC/IC50 cancer cell” value worked out at 1 and the “Therapeutic Index = IC50 stimulated PBMC/IC50 cancer cell, AVERAGE” value amounted to 4.

In the case of `CCCCC(=O)O[C@]1(C(=O)CO)CC[C@H]2[C@@H]3CCC4=CC(=O)CC[C@]4(C)[C@H]3CC[C@@]21C` [CB-03-05, cortexolone 17α-valerate], in the data set with stimulated PBMC, the “Therapeutic Index = IC50 resting PBMC/IC50 cancer cell” value was 1. The “Therapeutic Index = IC50 stimulated PBMC/IC50 cancer cell, AVERAGE” value in the data set on stimulated PBMC is given as 3. For the same compound, the “Caspase 3/7 induction / caspase activation profile” value with Caspase 3/7 was “does not show a good profile for caspase activation”. Also, the IC50 result in the data set with MDA-MB-231 (MDA-MB-231 (ER-PR-GR++), TNBC, 72 hours, Table VI prints no unit (same values in Table III in μM)) is “Not active”; with HT29, 530 µM. Besides, in the data set with MDA-MB-231 (MDA-MB-231, Table III), the “in vitro proliferation IC50” value is “not active”.

Turning to `CC(=O)O[C@]1(C(C)=O)CC[C@H]2[C@@H]3C=C(Cl)C4=CC(=O)[C@@H]5C[C@@H]5[C@]4(C)[C@H]3CC[C@@]21C` [Cyproterone Acetate, Cyproterone acetate, reference compound], the IC50 with LNCaP was 29 µM. For the same compound, the “TI on Stimulated PBMC” value with Panc1 is 1. For the same compound, in the data set on stimulated PBMC, the “Therapeutic Index = IC50 resting PBMC/IC50 cancer cell” value was 1 and the “Therapeutic Index = IC50 stimulated PBMC/IC50 cancer cell, AVERAGE” value is recorded as 1. The “average tumor size increase” value in data set [1] (Example 5) is 12 fold. Further, the “average tumor size increase” value in [1] (Example 6) is listed as no less than 12 fold. The compound further came in with a Median survival in [1] (Example 22, 40 mg/Kg SC daily 28 days, vehicle 60 days) of 40 days.

Turning to `CNC(=O)c1ccc(N2C(=S)N(c3ccc(C#N)c(C(F)(F)F)c3)C(=O)C2(C)C)cc1F` [Enzalutamide, reference compound], the “prostate tumor size increase after treatment was stopped” value in data set [2] (oral 100 mg/Kg daily 28 days, after stop) is recorded as 8 fold. For the same compound, the “statistical significance of tumor growth versus vehicle” value in [2] (oral gavage, FIG. 16) was “statistically significant only on days 14 and 25”.

With `Nc1ccn([C@@H]2O[C@H](CO)[C@@H](O)C2(F)F)c(=O)n1` [Gemcitabine, reference compound], the “Caspase 3/7 induction / caspase activation profile” value with Caspase 3/7 is given as “not seen until the 48 hours mark”.

As for `CC#C[C@]1(O)CC[C@H]2[C@@H]3CCC4=CC(=O)CCC4=C3[C@@H](c3ccc(N(C)C)cc3)C[C@@]21C` [RU486, Mifepristone, reference compound], the IC50 result with MCF7 is recorded as “Not active”.

Values taken from patent US11712443B2, “17α-monoesters and 17α,21-diesters of cortexolone for use in the treatment of tumors” (COSMO TECHNOLOGIES LTD., priority 2014, dated 2023).
